Where two headings read alike, the source gives them in different places. Residues, ends and D or L forms follow the SMILES beside them.
What was measured:
[1] = molecular target: HLA-DRB1*0401 molecules purified from Priess cells (Homo sapiens, UniProt P01903+P01911, A100K/A169T/F76Y/I96L/K127E/L162R/M171V/N62H/P40V/Q125Y/R42H/S133A/S149N/S66Y/V115G/V209L/W38E); experiment: biochemical; format: binding
[2] = molecular target: HLA-DRA-IEα/HLA-DRB1*0401-IEβ chimeric molecules purified from transfected M12.C3 cells (Homo sapiens, UniProt P01903+P01911, A100K/A169T/F76Y/I96L/K127E/L162R/M171V/N62H/P40V/Q125Y/R42H/S133A/S149N/S66Y/V115G/V209L/W38E); experiment: biochemical; format: binding, human/mouse chimeric
[3] = system: experimental allergic encephalomyelitis in HLA-DRA-IEα/HLA-DRB1*0401-IEβ Tg mice; format: in vivo, mouse

| SMILES | IC50 [1] [nM] | IC50 [2] [nM] | Severity: number of mice with clinical score 0 (no disease) ([3]; Non-Tg mice, n = 5, Table 2) | EAE developed (in words) ([3]; Tg mice) | Severity: number of mice with clinical score 0 (no disease) ([3]; Tg mice, n = 5, Table 2) | Severity: number of mice with clinical score 1 (tail atony) ([3]; Tg mice, n = 5, Table 2) | Severity: number of mice with clinical score 3 (hind-limb paralysis) ([3]; Tg mice, n = 5, Table 2) |
| --- | --- | --- | --- | --- | --- | --- | --- |
| CSCC[C@H](NC(=O)[C@H](C)NC(=O)[C@H](CCCNC(=N)N)NC(=O)[C@@H](N)Cc1ccc(O)cc1)C(=O)N[C@@H](C)C(=O)N[C@@H](C)C(=O)N[C@@H](CC(C)C)C(=O)O [Peptide A6-m1-7] (H-YRAMAAL-OH) | 410 | 530 |  |  |  |  |  |
| CSCC[C@H](NC(=O)[C@H](C)NC(=O)[C@H](CCCNC(=N)N)NC(=O)[C@@H](N)Cc1ccc(O)cc1)C(=O)N[C@@H](C)C(=O)N[C@@H](CO)C(=O)N[C@@H](CC(C)C)C(=O)O [Peptide S6-m1-7] (H-YRAMASL-OH) | 43 | 53 |  |  |  |  |  |
| CSCC[C@H](NC(=O)[C@H](C)NC(=O)[C@H](CCCNC(=N)N)NC(=O)[C@@H](N)Cc1ccc(O)cc1)C(=O)N[C@@H](C)C(=O)N[C@H](C(=O)N[C@@H](CC(C)C)C(=O)O)[C@@H](C)O [m 1-7] (H-YRAMATL-OH) | 120 | 130 |  |  |  |  |  |
| CC[C@H](C)[C@H](NC(=O)[C@H](CC(N)=O)NC(=O)[C@H](CCCCN)NC(=O)[C@H](Cc1ccccc1)NC(=O)[C@H](Cc1ccccc1)NC(=O)[C@H](Cc1c[nH]cn1)NC(=O)[C@@H](NC(=O)[C@@H](N)C(C)C)C(C)C)C(=O)N[C@H](C(=O)N[C@H](C(=O)N1CCC[C@H]1C(=O)N[C@@H](CCCNC(=N)N)C(=O)N[C@H](C(=O)N1CCC[C@H]1C(=O)N1CCC[C@H]1C(=O)N1CCC[C@H]1C(=O)N[C@@H](CO)C(=O)N[C@@H](CCC(N)=O)C(=O)NCC(=O)N[C@@H](CCCCN)C(=O)O)[C@@H](C)O)[C@@H](C)O)C(C)C [MBP87-106] (H-VVHFFKNIVTPRTPPPSQGK-OH; N-terminus and C-terminus assumed) |  |  | 5 | only a mild EAE | 2 | 2 | 1 |
| CC[C@H](C)[C@H](NC(=O)[C@H](CO)NC(=O)[C@H](CCC(N)=O)NC(=O)[C@H](CS)NC(=O)[C@@H](NC(=O)[C@@H](NC(=O)[C@H](Cc1c[nH]c2ccccc12)NC(=O)[C@@H](NC(=O)[C@H](CC(N)=O)NC(=O)[C@H](Cc1ccccc1)NC(=O)[C@H](Cc1ccc(O)cc1)NC(=O)[C@@H](NC(=O)[C@@H](N)Cc1ccc(O)cc1)[C@@H](C)CC)[C@@H](C)O)[C@@H](C)O)[C@@H](C)O)C(=O)N[C@@H](C)C(=O)N[C@@H](Cc1ccccc1)C(=O)N1CCC[C@H]1C(=O)N[C@@H](CO)C(=O)N[C@@H](CCCCN)C(=O)O [PLP175-192] (H-YIYFNTWTTCQSIAFPSK-OH) | 187 | 169 |  |  |  |  |  |

Reference: PMC2192625 (The Journal of Experimental Medicine, 1996)
